The text below walks through data of patent US11986532B2 (Arvinas Operations, Inc., priority 2021, dated 2024).

Molecules are shown by their SMILES.

In this experiment the target is T1, BCL6 (Homo sapiens, UniProt P41182).
T1 construct: endogenous in cells; host or cells: T47D breast cancer epithelial cells
The experiment is described as follows: Immunofluorescence protocol for high content imaging of BCL6 (degradation) in T47D cells, 3 days compound treatment. As to conditions: for Dmax: T47D, read-out: Mean Dmax (%)** category; for DC50: read-out: Mean DC50 (nM)* category. It counts as cell-based. In short, it runs like this:
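High content immunofluorescence imaging (10×, 4 fields/well) of BCL6 using rabbit primary antibody, Alexa-488 secondary, cell mask and Hoechst nuclear stain after PFA fixation. Before staining, T47D cells (7K/well) were exposed for 3 days at 37° C to 3-fold serial dilutions of compound, top final concentration 0.1 or 1 μM.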

`CNC(=O)COc1cc2cc(Nc3nc(N4CCC(O[C@H]5C[C@H](N6CCC(c7cc8c(cc7Cl)C(=O)N(C7CCC(=O)NC7=O)C8)CC6)C5)CC4)ncc3Cl)ccc2n(C(C)C)c1=O` (stereo partly shown) [Compound 329, 2-({6-[(5-chloro-2-{4-[(1r,3r)-3-{4-[6-chloro-2-(2,6-dioxopiperidin-3-yl)-1-oxo-2,3-dihydro-1H-isoindol-5-yl]piperidin-1-yl}cyclobutoxy]piperidin-1-yl}pyrimidin-4-yl)amino]-2-oxo-1-(propan-2-yl)-1,2-dihydroquinolin-3-yl}oxy)-N-methylacetamide]: the Dmax fell in the range of 50 to 70% and the DC50 is under 10 nM.
On to `CNC(=O)COc1cc2cc(Nc3nc(N4CCC(O[C@H]5C[C@H](N6CC7(CCN7c7ccc8c(c7)C(=O)N(C7CCC(=O)NC7=O)C8)C6)C5)CC4)ncc3Cl)ccc2n(C(C)C)c1=O` (stereo partly shown) [Compound 330, 2-({6-[(5-chloro-2-{4-[(1r,3r)-3-{1-[2-(2,6-dioxopiperidin-3-yl)-3-oxo-2,3-dihydro-1H-isoindol-5-yl]-1,6-diazaspiro [3.3]heptan-6-yl}cyclobutoxy]piperidin-1-yl}pyrimidin-4-yl)amino]-2-oxo-1-(propan-2-yl)-1,2-dihydroquinolin-3-yl}oxy)-N-methylacetamide], for which the Dmax was under 50% and the DC50 is 10 to 50 nM.
For `CNC(=O)COc1cc2cc(Nc3nc(N4CCN(CC5CCC6(CC5)CN(c5ccc7c(c5OC)CN(C5CCC(=O)NC5=O)C7=O)C6)CC4)ncc3Cl)ccc2n(C(C)C)c1=O` (stereo not shown) [Compound 331, 2-{[6-({5-chloro-2-[4-({2-[2-(2,6-dioxopiperidin-3-yl)-4-methoxy-1-oxo-2,3-dihydro-1H-isoindol-5-yl]-2-azaspiro[3.5]nonan-7-yl}methyl)piperazin-1-yl]pyrimidin-4-yl}amino)-2-oxo-1-(propan-2-yl)-1,2-dihydroquinolin-3-yl]oxy}-N-methylacetamide], the Dmax lay in the range of 50 to 70% and the half-maximal degradation concentration (DC50) fell in the range of 10 to 50 nM.
With `CNC(=O)COc1cc2cc(Nc3nc(N4CCC(CN5CCC6(CN(c7ccc8c(c7F)CN(C7CCC(=O)NC7=O)C8=O)C6)C(F)(F)C5)CC4)ncc3Cl)ccc2n(C(C)C)c1=O` (stereo not shown) [Compound 332, 2-{[6-({5-chloro-2-[4-({2-[2-(2,6-dioxopiperidin-3-yl)-4-fluoro-1-oxo-2,3-dihydro-1H-isoindol-5-yl]-5,5-difluoro-2,7-diazaspiro[3.5]nonan-7-yl}methyl)piperidin-1-yl]pyrimidin-4-yl}amino)-2-oxo-1-(propan-2-yl)-1,2-dihydroquinolin-3-yl]oxy}-N-methylacetamide], the Dmax is at least 70% and the DC50 is under 10 nM.
For the compound `CNC(=O)COc1cc2cc(Nc3nc(N4CCC(CN5CCC6(CC5)CCN6c5cccc6c5C(=O)N(C5CCC(=O)NC5=O)C6=O)CC4)ncc3Cl)ccc2n(C(C)C)c1=O` (stereo not shown) [Compound 333, 2-{[6-({5-chloro-2-[4-({1-[2-(2,6-dioxopiperidin-3-yl)-1,3-dioxo-2,3-dihydro-1H-isoindol-4-yl]-1,7-diazaspiro[3.5]nonan-7-yl}methyl)piperidin-1-yl]pyrimidin-4-yl}amino)-2-oxo-1-(propan-2-yl)-1,2-dihydroquinolin-3-yl]oxy}-N-methylacetamide], the Dmax is at least 70% and the 50% degradation concentration (DC50) was under 10 nM.
With `CNC(=O)COc1cc2cc(Nc3nc(N4CCC(CN5CCC6(CC5)CCN6c5cccc6c5CN(C5CCC(=O)NC5=O)C6=O)CC4)ncc3Cl)ccc2n(C(C)C)c1=O` (stereo not shown) [Compound 334, 2-{[6-({5-chloro-2-[4-({1-[2-(2,6-dioxopiperidin-3-yl)-1-oxo-2,3-dihydro-1H-isoindol-4-yl]-1,7-diazaspiro[3.5]nonan-7-yl}methyl)piperidin-1-yl]pyrimidin-4-yl}amino)-2-oxo-1-(propan-2-yl)-1,2-dihydroquinolin-3-yl]oxy}-N-methylacetamide], the Dmax is 50 to 70% and the DC50 was under 10 nM.
Take `CNC(=O)COc1cc2cc(Nc3nc(N4CCC(CN5CCC6(CC5)CCN6c5ccc6c(c5)C(=O)N(C5CCC(=O)NC5=O)C6=O)CC4)ncc3Cl)ccc2n(C(C)C)c1=O` (stereo not shown) [Compound 335, 2-{[6-({5-chloro-2-[4-({1-[2-(2,6-dioxopiperidin-3-yl)-1,3-dioxo-2,3-dihydro-1H-isoindol-5-yl]-1,7-diazaspiro[3.5]nonan-7-yl}methyl)piperidin-1-yl]pyrimidin-4-yl}amino)-2-oxo-1-(propan-2-yl)-1,2-dihydroquinolin-3-yl]oxy}-N-methylacetamide]: the greatest degradation seen (Dmax) is at least 70% and the DC50 was under 10 nM.
For the compound `CNC(=O)COc1cc2cc(Nc3nc(N4CCC(CN5CCC6(CC5)CCN6c5ccc6c(c5)CN(C5CCC(=O)NC5=O)C6=O)CC4)ncc3Cl)ccc2n(C(C)C)c1=O` (stereo not shown) [Compound 336, 2-{[6-({5-chloro-2-[4-({1-[2-(2,6-dioxopiperidin-3-yl)-1-oxo-2,3-dihydro-1H-isoindol-5-yl]-1,7-diazaspiro[3.5]nonan-7-yl}methyl)piperidin-1-yl]pyrimidin-4-yl}amino)-2-oxo-1-(propan-2-yl)-1,2-dihydroquinolin-3-yl]oxy}-N-methylacetamide], the Dmax is at least 70% and the half-maximal degradation concentration (DC50) is under 10 nM.
`CNC(=O)COc1cc2cc(Nc3nc(N4CCC(CN5CCC6(CC5)CN(c5cccc7c5C(=O)N(C5CCC(=O)NC5=O)C7=O)C6(C)C)CC4)ncc3Cl)ccc2n(C(C)C)c1=O` (stereo not shown) [Compound 337, 2-{[6-({5-chloro-2-[4-({2-[2-(2,6-dioxopiperidin-3-yl)-1,3-dioxo-2,3-dihydro-1H-isoindol-4-yl]-1,1-dimethyl-2,7-diazaspiro[3.5]nonan-7-yl}methyl)piperidin-1-yl]pyrimidin-4-yl}amino)-2-oxo-1-(propan-2-yl)-1,2-dihydroquinolin-3-yl]oxy}-N-methylacetamide]: the Dmax was 50 to 70% and the DC50 was under 10 nM.
`CNC(=O)COc1cc2cc(Nc3nc(N4CCC(O[C@H]5C[C@H](N6CCC7(CN(c8ccc9c(c8)C(=O)N(C8CCC(=O)NC8=O)C9=O)C7)C6)C5)CC4)ncc3Cl)ccc2n(C(C)C)c1=O` (stereo partly shown) [Compound 338, 2-({6-[(5-chloro-2-{4-[(1r,3r)-3-{2-[2-(2,6-dioxopiperidin-3-yl)-1,3-dioxo-2,3-dihydro-1H-isoindol-5-yl]-2,6-diazaspiro[3.4]octan-6-yl}cyclobutoxy]piperidin-1-yl}pyrimidin-4-yl)amino]-2-oxo-1-(propan-2-yl)-1,2-dihydroquinolin-3-yl}oxy)-N-methylacetamide]: the Dmax is at least 70% and the DC50 is 10 to 50 nM.
For `CNC(=O)COc1cc2cc(Nc3nc(N4CCC(O[C@H]5C[C@H](N6CCC7(CCN(c8ccc9c(c8)C(=O)N(C8CCC(=O)NC8=O)C9=O)C7)C6)C5)CC4)ncc3Cl)ccc2n(C(C)C)c1=O` (stereo partly shown) [Compound 339, 2-({6-[(5-chloro-2-{4-[(1r,3r)-3-{7-[2-(2,6-dioxopiperidin-3-yl)-1,3-dioxo-2,3-dihydro-1H-isoindol-5-yl]-2,7-diazaspiro[4.4]nonan-2-yl}cyclobutoxy]piperidin-1-yl}pyrimidin-4-yl)amino]-2-oxo-1-(propan-2-yl)-1,2-dihydroquinolin-3-yl}oxy)-N-methylacetamide], the Dmax lay within 50 to 70% and the DC50 was under 10 nM.

The Dmax is the largest share of the target that was removed. For orientation: DC50 means the concentration giving 50% degradation.
